Test results as given in ChEMBL document CHEMBL4419178, “Yap1 inhibitors that target the interaction of yap1 with oct4” (2018).
Active and inactive are the calls of the source. The calls are words filed in the database; no cut-off is given here.

Tests used:
NCI-H1703 [1] = experiment: Effect on expression of Nanog mRNA expression in human NCI-H1703 cells at 5 to 10 uM incubated for 72 hrs by RT-PCR method; type: cell-based; conditions: nci-h1703, 72 h
NCI-H1650 [2] = experiment: Effect on expression of Nanog mRNA expression in human NCI-H1650 cells at 5 to 10 uM incubated for 72 hrs by RT-PCR method; type: cell-based; conditions: nci-h1650, 72 h
Homo sapiens [3] = species on record: Homo sapiens; experiment: Cytotoxicity in human WM1366 cells assessed as reduction in cell viability at 0.5 to 20 uM incubated for 72 hrs by MTT assay; type: functional, cell-based
NCI-H226 = experiment: Cytotoxicity in human NCI-H226 cells assessed as reduction in cell viability at 0.5 to 20 uM incubated for 96 hrs by MTT assay; type: functional, cell-based
A549 = experiment: Cytotoxicity in human A549 cells assessed as reduction in cell viability at 0.5 to 20 uM incubated for 72 hrs by MTT assay; type: functional, cell-based
[4] = biological target: Transcriptional coactivator YAP1 (Homo sapiens) (UniProt P46937); experiment: Inhibition of YAP1 in human NCI-H1650 cells assessed as suppression of fibronectin mRNA expression at 5 to 10 uM incubated for 72 hrs by RT-PCR method; type: cell-based
NCI-H1650 [5] = experiment: Inhibition of self-renewal capacity in stem-like side-population cells of human NCI-H1650 cells assessed as reduction in number of spheres at 5 uM incubated for 10 days by sphere formation assay relative to control; type: functional; conditions: NCI-H1650, 240 h
NCI-H1703 [6] = experiment: Inhibition of adherence-independent cell growth in human NCI-H1703 cells at 10 uM incubated for 33 days; type: functional, cell-based
NCI-H1703 [7] = experiment: Effect on expression of Oct4 mRNA expression in human NCI-H1703 cells at 5 to 10 uM incubated for 72 hrs by RT-PCR method; type: cell-based; conditions: nci-h1703, 72 h
HUVEC = experiment: Inhibition of angiogenic tubule formation in HUVEC at 1 to 5 uM incubated for 18 to 24 hrs; type: functional, cell-based; conditions: Homo sapiens
[8] = biological target: Transcriptional coactivator YAP1 (Homo sapiens) (UniProt P46937); experiment: Inhibition of YAP1 in human A549 cells assessed as disruption in YAP1/OCT4 interaction at 5 uM incubated for 72 hrs by immunoprecipitation-Westem blot assay; type: cell-based
[9] = biological target: Transcriptional coactivator YAP1 (Homo sapiens) (UniProt P46937); experiment: Inhibition of YAP1 in human NCI-H146 cells assessed as suppression of Sox2 mRNA expression at 5 to 10 uM incubated for 72 hrs by RT-PCR method; type: cell-based
NCI-H1975 = experiment: Cytotoxicity in gefitinib and erlotinib resistant human NCI-H1975 cells assessed as reduction in cell viability at 1 to 10 uM incubated for 72 hrs by MTT assay; type: functional, cell-based
NCI-H1703 [10] = experiment: Inhibition of adherence-independent cell growth in human NCI-H1703 cells at 5 uM incubated for 33 days; type: functional, cell-based
[11] = biological target: Transcriptional coactivator YAP1 (Homo sapiens) (UniProt P46937); experiment: Inhibition of YAP1 in human NCI-H1703 cells assessed as suppression of Sox2 mRNA expression at 5 to 10 uM incubated for 72 hrs by RT-PCR method; type: cell-based
NCI-H1650 [12] = experiment: Inhibition of self-renewal capacity in stem-like side-population cells of human NCI-H1650 cells assessed as reduction in number of spheres at 1 to 20 uM incubated for 10 days by sphere formation assay; type: functional, cell-based
NCI-H1650 [13] = experiment: Effect on expression of Oct4 mRNA expression in human NCI-H1650 cells at 5 to 10 uM incubated for 72 hrs by RT-PCR method; type: cell-based; conditions: nci-h1650, 72 h
SK-MEL-5 = experiment: Cytotoxicity in human SK-MEL-5 cells assessed as reduction in cell viability at 0.5 to 20 uM incubated for 72 hrs by MTT assay; type: functional, cell-based
NCI-H1650 [14] = experiment: Inhibition of adherence-independent cell growth in human NCI-H1650 cells at 10 uM incubated for 33 days; type: functional, cell-based
NCI-H1703 [15] = experiment: Inhibition of YAP1/TEAD2 interaction in human NCI-H1703 cells assessed as suppression of CTGF mRNA expression at 5 to 10 uM incubated for 72 hrs by RT-PCR method; type: cell-based
[16] = biological target: Transcriptional coactivator YAP1 (Homo sapiens) (UniProt P46937); experiment: Inhibition of YAP1 in human NCI-H1703 cells assessed as suppression of fibronectin mRNA expression at 5 to 10 uM incubated for 72 hrs by RT-PCR method; type: cell-based
PC-9 = experiment: Cytotoxicity in gefitinib resistant human PC9 cells assessed as reduction in cell viability at 1 to 20 uM by MTT assay; type: functional, cell-based
NCI-H146 [17] = experiment: Effect on expression of Oct4 mRNA expression in human NCI-H146 cells at 5 to 10 uM incubated for 72 hrs by RT-PCR method; type: cell-based; conditions: nci-h146, 72 h
NCI-H1703 [18] = experiment: Cytotoxicity in human NCI-H1703 cells assessed as reduction in cell viability at 0.5 to 20 uM incubated for 96 hrs by MTT assay; type: functional, cell-based
NCI-H1650 [19] = experiment: Inhibition of YAP1/TEAD2 interaction in human NCI-H1650 cells assessed as suppression of CTGF mRNA expression at 5 to 10 uM incubated for 72 hrs by RT-PCR method; type: cell-based
[20] = biological target: Transcriptional coactivator YAP1 (Homo sapiens) (UniProt P46937); experiment: Inhibition of YAP1 in human NCI-H1650 cells assessed as suppression of vimentin mRNA expression at 5 to 10 uM incubated for 72 hrs by RT-PCR method; type: cell-based
[21] = biological target: Transcriptional coactivator YAP1 (Homo sapiens) (UniProt P46937); experiment: Inhibition of YAP1 in human NCI-H1703 cells assessed as suppression of vimentin mRNA expression at 5 to 10 uM incubated for 72 hrs by RT-PCR method; type: cell-based
NCI-H1650 [22] = experiment: Inhibition of adherence-independent cell growth in human NCI-H1650 cells at 5 uM incubated for 33 days; type: functional, cell-based
NCI-H146 [23] = experiment: Inhibition of self-renewal capacity in methotrexate insensitive stem-like side-population cells of human NCI-H146 cells assessed as reduction in number of spheres at 2 uM incubated for 3 days after 7 days methotrexate exposure by sphere formation assay; type: functional
[24] = biological target: Transcriptional coactivator YAP1 (Homo sapiens) (UniProt P46937); experiment: Inhibition of YAP1 in human NCI-H1650 cells assessed as reduction in Sox2 protein expression at 5 uM by luciferase reporter gene assay; type: cell-based
NCI-H1650 [25] = experiment: Cytotoxicity in human NCI-H1650 cells assessed as reduction in cell viability at 0.5 to 20 uM incubated for 72 hrs by MTT assay; type: functional, cell-based
[26] = biological target: Transcriptional coactivator YAP1 (Homo sapiens) (UniProt P46937); experiment: Inhibition of YAP1 in human NCI-H1650 cells assessed as suppression of Sox2 mRNA expression at 5 to 10 uM incubated for 72 hrs by RT-PCR method; type: cell-based
NCI-H146 [27] = experiment: Effect on expression of Nanog mRNA expression in human NCI-H146 cells at 5 to 10 uM incubated for 72 hrs by RT-PCR method; type: cell-based; conditions: nci-h146, 72 h
HCC827 = experiment: Cytotoxicity in erlotinib-resistant human HCC827 cells assessed as reduction in cell viability at 1 to 20 uM by MTT assay; type: functional, cell-based
Homo sapiens [28] = species on record: Homo sapiens; experiment: Cytotoxicity in human 92-1 cells assessed as reduction in cell viability at 0.5 to 20 uM incubated for 72 hrs by MTT assay; type: functional, cell-based
[29] = biological target: Transcriptional coactivator YAP1 (Homo sapiens) (UniProt P46937); experiment: Inhibition of YAP1 in human NCI-H1650 cells assessed as disruption in YAP1/OCT4 interaction at 5 uM incubated for 72 hrs by immunoprecipitation-Westem blot assay; type: cell-based

Sequence of Transcriptional coactivator YAP1 (Homo sapiens) (P46937 whole entry): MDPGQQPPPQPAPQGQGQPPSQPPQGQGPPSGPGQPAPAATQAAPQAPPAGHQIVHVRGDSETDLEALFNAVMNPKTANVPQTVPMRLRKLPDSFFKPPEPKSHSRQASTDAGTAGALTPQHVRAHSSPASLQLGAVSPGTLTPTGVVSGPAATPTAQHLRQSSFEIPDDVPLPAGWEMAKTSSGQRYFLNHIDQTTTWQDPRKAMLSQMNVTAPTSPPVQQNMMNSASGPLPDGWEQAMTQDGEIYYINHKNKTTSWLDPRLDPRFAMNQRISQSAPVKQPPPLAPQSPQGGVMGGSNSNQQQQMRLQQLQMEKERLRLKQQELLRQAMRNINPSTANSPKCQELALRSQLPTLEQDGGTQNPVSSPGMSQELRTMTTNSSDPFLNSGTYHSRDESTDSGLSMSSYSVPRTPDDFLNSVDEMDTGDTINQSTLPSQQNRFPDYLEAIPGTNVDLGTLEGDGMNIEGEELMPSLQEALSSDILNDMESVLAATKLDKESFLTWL

| inhibition [4] | inhibition [8] | inhibition [9] | inhibition [11] | Structure (SMILES) | Activity (NCI-H1703 [1]) | Activity (NCI-H1650 [2]) | Activity (Homo sapiens [3]) | Activity (NCI-H226) | Activity (A549) | inhibition at 5 µM (NCI-H1650 [5]) [%] | inhibition (NCI-H1703 [6]) | Activity (NCI-H1703 [7]) | inhibition (HUVEC) | Activity (NCI-H1975) | inhibition (NCI-H1703 [10]) | inhibition (NCI-H1650 [12]) | Activity (NCI-H1650 [13]) | Activity (SK-MEL-5) | inhibition (NCI-H1650 [14]) | inhibition (NCI-H1703 [15]) | other results |
| --- | --- | --- | --- | --- | --- | --- | --- | --- | --- | --- | --- | --- | --- | --- | --- | --- | --- | --- | --- | --- | --- |
| Active | Active | Active | Active | COC(=O)[C@H](Cc1ccc(OCc2ccccc2)cc1)NC(=O)CC1CCN(C(=O)CCc2ccc(C#N)cc2)CC1 | Non-Toxic | Non-Toxic | Active | Active | Active | 80.2 | Active | Non-Toxic | Active | Active | Active | Active | Non-Toxic | Active | Active | inactive | inhibition [16]: Active; Activity (PC-9): Active; Activity (NCI-H146 [17]): Non-Toxic; Activity (NCI-H1703 [18]): Active; inhibition (NCI-H1650 [19]): inactive; inhibition [20]: Active; inhibition [21]: Active; inhibition (NCI-H1650 [22]): Active; inhibition (NCI-H146 [23]): Active; inhibition [24]: 77.6%; Activity (NCI-H1650 [25]): Active; inhibition [26]: Active; Activity (NCI-H146 [27]): Non-Toxic; Activity (HCC827): Active; Activity (Homo sapiens [28]): Active; inhibition [29]: Active |
| Active | Active | Active | Active | COC(=O)[C@H](Cc1ccc(OCc2ccccc2)cc1)NC(=O)CC1CCN(C(=O)CCc2ccc(Cl)c(Cl)c2)CC1 | Non-Toxic | Non-Toxic | Active | Active | Active | 99 | Active | Non-Toxic | Active | Active | Active | Active | Non-Toxic | Active | Active | inactive | inhibition [16]: Active; Activity (PC-9): Active; Activity (NCI-H146 [17]): Non-Toxic; Activity (NCI-H1703 [18]): Active; inhibition (NCI-H1650 [19]): inactive; inhibition [20]: Active; inhibition [21]: Active; inhibition (NCI-H1650 [22]): Active; inhibition (NCI-H146 [23]): Active; inhibition [24]: 85.5%; Activity (NCI-H1650 [25]): Active; inhibition [26]: Active; Activity (NCI-H146 [27]): Non-Toxic; Activity (HCC827): Active; Activity (Homo sapiens [28]): Active; inhibition [29]: Active |
